Data from US4752614A, “Pharmaceutical compositions of tellerium and selenium compounds for the induction of in vivo and in vitro production of cytokines” (Bar-Ilan University, priority 1987, dated 1988).
“And” between values parts separate entries of the source, which are not always exact repeats. Equal values may be shown once. Read-outs that look alike come from different tables or passages of the source.

Experiments:
[1] = Dissolution in aqueous vehicles; format: physicochemical; details: organic solvent or mixture, read-out: solubility (will dissolve)
Excerpt: The invention also contemplates a method for dissolving the compounds of the invention in an aqueous vehicle. This method comprises the use of ultrasound or mechanical agitation for an extended period of time which will dissolve the compound. Generally ultrasound is produced by a transformer which transforms 50/60 hertz, line voltage AC into high frequency electrical energy which is coupled to a transducer. By using piezoelectric ceramics, electrical frequency is converted into mechanical vibration. Typical amplitudes of 0.0003 for 40 k Hz equipment and 0.00007 to 0.001 for 20 k Hz equipment are useful. The transducer may be provided with a booster that is connected to a horn that has means for conducting the ultrasound to a container that holds the liquid for dissolving the compounds of the invention. Useful devices include small scale ultrasonic cleaners such as the Bronson instrument. […] The time required for this is usually 3 hours to 24 hours. High speed mechanical shakers such as a Tutenhauer shaker or waring blenders may be used for this purpose. The use of an electically operated agitator will cause the compounds to form a solution or dispersion after about 3 to 4 hours of agitation.
Using stirring 5.0 mg of the compound of Example 1 is dissolved under sterile conditions in 20 ml of glycerol. Thereafter 80 ml of PBS is added to form a solution containing 10 μg/0.2 ml.
It has been determined that the compound of Example 1 will dissolve as follows: […]

human mononuclear cells = test: Proliferation of human mononuclear cells (Example 19); format: cell-based
Experimental: Human mononuclear cells were obtained by layering heparinized blood over a Ficoll/Hypaque gradient. The mononuclear cells were resuspended in enriched RPMI, rinsed three times and brought to a concentrations of 5×10^5 cells/ml encriched RPMI. […] Aliquots of 0.2 ml of each sample were placed in wells of microplates (triplicates). Microplates were incubated for 72 hours at 37° C. after which they were labelled with H^3 methyl-thymidine 1 μCi/well for an additional 24 hours. Cells were then harvested with a cell harvester.

fibrosarcoma cells = test: Survival of mice with methylcholanthrene induced fibrosarcoma (Example 6); format: in vivo, Balb-c mice; set-up: mortality: concentration or dose not given beside the values
Experimental: (§1) A solution of 0.2% of methylcholanthrene (MCA, Sigma, USA) was prepared by dissolving 2 mg of the carcinogen in 1.0 ml of olive oil (Ref: Petra, et al., Cancer 19:302, 1961) with continuous shaking at 37° C. for 30 minutes. Six to eight week old C3 Heb mice were injected with 0.6 mg MCA/0.3 ml of solvent/mouse subcutaneously in the rear right thigh. After 21-30 days the induced tumor was surgically removed and pushed through 60 mesh stainless nets to obtain isolated cells. These cells were then further injected subcuteneously into the rear right thigh of C3 Heb mice 5 to 8 weeks of age, at a concentration of 10^6 cells/0.3 ml PBS/mouse/hypodermic needle 25 gauge, 5/8" to further induce tumor formation.
Balb-c mice, age 7 weeks were injected with methylcholanthrene to induce the formation of fibrosarcoma cells according to the procedure of Example 5. The test animals were divided into two groups.
(a) control (0.2 IP of 40% DMSO and 60% PBS)

[2] = tested on: experimentally induced tumor; test: In vivo effect on methylcholanthrene (MCA) induced tumor (Example 5); set-up: species or system C3 Heb mice; details: 10 μg IP
Experimental: as §1
Five days after injection of the tumor cells, a palpable tumor was induced. The animals were thereafter treated as follows:
(a) control (0.2 ml 40% DMSO 60% PBS, IP 1 day after the induced tumor was palpable)
(b) 10 μg of compound of Example 1, IP to 5 mice (in 0.2 ml 40% DMSO 60% PBS, 3 days after the induced tumor was palpable and a second injection of 10 μg of compound in the same solvent was administered 5 days after the first injection to 3 of the 5 mice.
All animals expired 35 to 38 days after the initial innoculation.

IL-2 [3] = test: IL-2 activity of supernatants of human mononuclear cells on CTLD cells (Example 8); format: cell-based; details: 72 hours
receptor sites for IL-2 = test: Detection of IL-2 receptors with fluoresceinated antibody (Example 21); format: cell-based, human; details: 1 μg/ml, 24 hours
Experimental: This example provides an assay to detect the presence of receptor sites for IL-2. […] The cells were washed twice with PDS and then incubated with a specific fluoresceinated antibody against IL-2 receptors as described in Uchiyama et al, J. Immunol.

IL-2 [4] = test: IL-2 production by human mononuclear cells of normal donors and SLE patients (Example 20); format: cell-based
Experimental: Using the procedure of Example 4, human mononuclear cells were tested for their ability to produce IL-2 after induction with PHA or in unstimulated cells from normal donors and from patients suffering from systemic lupus erthyrematous. The IL-2 content was tested according to the procedure of Example 3 using the CTLD IL-2 dependent cell line.

[5] = Preliminary toxicity (LD50) in mice; format: in vivo; details: 6 week old mice

Work on `Cl[TeH]1(Cl)(Cl)OCCO1` [Example 1] yielded a solubility ([1]; 10% glycerol/90% pbs) of 1000 µg/mL, a solubility ([1]; 20% glycerol/80% pbs) of 1300 µg/mL and a solubility ([1]; 40% glycerol/60% pbs) of 6000 µg/mL. The “proliferation of human mononuclear cells” value (human mononuclear cells; first part of table, 1 × 10^-3 μg/ml) was 2553 and 2180, the “proliferation of human mononuclear cells” value (human mononuclear cells; first part of table, 1 × 10^-4 μg/ml) was 3838 and 2387 and the “proliferation of human mononuclear cells” value (human mononuclear cells; first part of table, 1 × 10^-5 μg/ml) was 3218 and 2442. For the same compound, the “proliferation of human mononuclear cells” value (human mononuclear cells; first part of table, 5 × 10^-1 μg/ml) was 18515 and 33700, the “proliferation of human mononuclear cells” value (human mononuclear cells; second part of table, 1 μg/ml) was 6000 and 5600 and the “proliferation of human mononuclear cells” value (human mononuclear cells; second part of table, 5 μg/ml) was 5008 and 5182. For the same compound, the “proliferation of human mononuclear cells” value (human mononuclear cells; second part of table, 1 × 10^-1 μg/ml) was 7037 and 10382, the “proliferation of human mononuclear cells” value (human mononuclear cells; second part of table, 1 × 10^-2 μg/ml) was 6898 and 5712 and the “proliferation of human mononuclear cells” value (human mononuclear cells; second part of table, 1 × 10^-3 μg/ml) was 5800 and 6000. For the same compound, the “proliferation of human mononuclear cells” value (human mononuclear cells; second part of table, 1 × 10^-4 μg/ml) was 5513 and 6212, the “proliferation of human mononuclear cells” value (human mononuclear cells; second part of table, 5 × 10^-1 μg/ml) was 20488 and 13600 and the “proliferation of human mononuclear cells” value (human mononuclear cells; second part of table, 5 × 10^-2 μg/ml) was 5520 and 5765. The “% Survival” value (fibrosarcoma cells; 10 μg IP, day 4 after innoculation) was 100%, the “% Survival” value (fibrosarcoma cells; 10 μg IP, day 9) was 100% and the “% Survival” value (fibrosarcoma cells; 10 μg IP, day 23) was 100%. The “% Survival” value (fibrosarcoma cells; 10 μg IP, day 30) was 100%, the “% Survival” value (fibrosarcoma cells; 10 μg IP, day 37) was 100% and the “% Survival” value (fibrosarcoma cells; day 39, start of increased dosage regimen) was 100%. The “% Survival” value (fibrosarcoma cells; day 41, increased dosage) was 100%, the “% Survival” value (fibrosarcoma cells; day 43, increased dosage) was 100% and the “% Survival” value (fibrosarcoma cells; day 46, increased dosage) was 80%. For the same compound, the “% Survival” value (fibrosarcoma cells; day 48, increased dosage) was 80%, the “% Survival” value (fibrosarcoma cells; day 50, increased dosage) was 80% and the “% Survival” value (fibrosarcoma cells; day 53, increased dosage) was 60%. For the same compound, the “% Survival” value (fibrosarcoma cells; day 60, increased dosage) was 40%, the “% Survival” value (fibrosarcoma cells; day 67) was 20% and the “% Survival” value (fibrosarcoma cells; day 68) was 0%. For the same compound, the mortality (fibrosarcoma cells; group (b), until just after the increased dosage regimen (day 39)) was 0%, the “Vol. of Tumor (13 days)” value ([2]; day 3, individual mouse) was 0.77 and 1.66 and the “Vol. of Tumor (13 days)” value ([2]; day 3 and 5, individual mouse) was 0.7 and 0.52 and 0.31. The IL-2 activity (IL-2 [3]; 1 ng) was 11,000 Counts per minute, the IL-2 activity (IL-2 [3]; 10 ng) was 1,500 Counts per minute and the IL-2 activity (IL-2 [3]; 1 μg) was 250 Counts per minute. The IL-2 activity (IL-2 [3]; 100 μg) was 280 Counts per minute, the “cells positive for IL-2 receptors” value (receptor sites for IL-2) was 20% and the IL-2 production (IL-2 [4]; SLE, PHA +, 5 μg 0.2 ml PBS) was 6.3 CPM × 10^-3 and 8.2 CPM × 10^-3 and 4.1 CPM × 10^-3. The IL-2 production (IL-2 [4]; SLE, PHA +, 1:50 PBS) was 24.2 CPM × 10^-3 and 28.1 CPM × 10^-3 and 23.8 CPM × 10^-3, the IL-2 production (IL-2 [4]; SLE, PHA +, 1:100 PBS) was 19.7 CPM × 10^-3 and 24.0 CPM × 10^-3 and 20.2 CPM × 10^-3 and the IL-2 production (IL-2 [4]; SLE, PHA +, 1:200 PBS) was 15.4 CPM × 10^-3 and 18.6 CPM × 10^-3 and 16.8 CPM × 10^-3. The IL-2 production (IL-2 [4]; SLE, PHA -, 5 μg 0.2 ml PBS) was 2.0 CPM × 10^-3 and 2.4 CPM × 10^-3, the IL-2 production (IL-2 [4]; SLE, PHA -, 1:100 PBS) was 32.1 CPM × 10^-3 and 35.1 CPM × 10^-3 and 18.1 CPM × 10^-3 and the IL-2 production (IL-2 [4]; normal, PHA +, 5 μg 0.2 ml PBS) was 36.4 CPM × 10^-3 and 30.4 CPM × 10^-3 and 38.9 CPM × 10^-3. For the same compound, the IL-2 production (IL-2 [4]; normal, PHA +, 1:50 PBS) was 48.2 CPM × 10^-3 and 38.9 CPM × 10^-3 and 53.5 CPM × 10^-3, the IL-2 production (IL-2 [4]; normal, PHA +, 1:100 PBS) was 46.2 CPM × 10^-3 and 54.2 CPM × 10^-3 and 44.8 CPM × 10^-3 and the IL-2 production (IL-2 [4]; normal, PHA +, 1:200 PBS) was 38.6 CPM × 10^-3 and 49.8 CPM × 10^-3 and 38.3 CPM × 10^-3. The IL-2 production (IL-2 [4]; normal, PHA -, 5 μg 0.2 ml PBS) was 2.3 CPM × 10^-3 and 2.1 CPM × 10^-3, the IL-2 production (IL-2 [4]; normal, PHA -, 1:50 PBS) was 43.6 CPM × 10^-3 and 52.2 CPM × 10^-3 and 50.8 CPM × 10^-3 and the IL-2 production (IL-2 [4]; normal, PHA -, 1:100 PBS) was 38.4 CPM × 10^-3 and 50.3 CPM × 10^-3 and 46.1 CPM × 10^-3. The IL-2 production (IL-2 [4]; normal, PHA -, 1:200 PBS) was 30.1 CPM × 10^-3 and 47.1 CPM × 10^-3 and 31.3 CPM × 10^-3 and the LD50 [5] was 300 μg./25 g of body weight.
